Like-named read-outs stand apart in the source and are kept apart here.
Key:
[1] = molecular target: PRC2 containing wt EZH2 (Homo sapiens (Human), UniProt Q15910); assay: EZH2 biochemical assay (IC50), 3H-SAM incorporation into biotinylated H3 peptide
In short: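 Activity was measured as ³H-methyl transfer to a biotinylated H3K27me1 peptide over 18-22 h at room temperature, with capture on streptavidin flash plates. The 30 pM wt-EZH2 PRC2 complex was first pre-incubated 3-5 h with compound, 450 nM SAM/450 nM ³H-SAM and 2 µM H3K27me3 activator (pH 8.5, 0.8% DMSO). Four-parameter fits gave IC50.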

[2] = system: H3K27me3 mark in HeLa cells (EZH2); assay: H3K27me3 Alpha Hela Assay (AlphaLISA); type: cell-based; conditions: HeLa cells, 72 hrs, read-out: EZH2 Cell H3K27me3 Alpha HeLa (EC50 K27me3)
In short: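 HeLa cells (1,000/well) treated with ten 3-fold compound doses for 72 h at 37 °C; lysates extracted and H3K27me3 detected by AlphaLISA with anti-K27me3 acceptor beads, biotinylated anti-H3 (3 nM) and streptavidin donor beads. EC50 from DMSO-normalized dose-response curves; duplicate plate assessed viability.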

[3] = 30 pM PRC2 containing wt EZH2; 3-5 h pre-incubation; read-out: EZH2 (IC50)
[4] = EZH2 (IC50), 30 pM PRC2 containing wt EZH2; 3-5 h pre-incubation
[5] = read-out: EZH2 (IC50); 30 pM PRC2 containing wt EZH2; 3-5 h pre-incubation

PRC2 containing wt EZH2, sequence (Q15910 whole entry): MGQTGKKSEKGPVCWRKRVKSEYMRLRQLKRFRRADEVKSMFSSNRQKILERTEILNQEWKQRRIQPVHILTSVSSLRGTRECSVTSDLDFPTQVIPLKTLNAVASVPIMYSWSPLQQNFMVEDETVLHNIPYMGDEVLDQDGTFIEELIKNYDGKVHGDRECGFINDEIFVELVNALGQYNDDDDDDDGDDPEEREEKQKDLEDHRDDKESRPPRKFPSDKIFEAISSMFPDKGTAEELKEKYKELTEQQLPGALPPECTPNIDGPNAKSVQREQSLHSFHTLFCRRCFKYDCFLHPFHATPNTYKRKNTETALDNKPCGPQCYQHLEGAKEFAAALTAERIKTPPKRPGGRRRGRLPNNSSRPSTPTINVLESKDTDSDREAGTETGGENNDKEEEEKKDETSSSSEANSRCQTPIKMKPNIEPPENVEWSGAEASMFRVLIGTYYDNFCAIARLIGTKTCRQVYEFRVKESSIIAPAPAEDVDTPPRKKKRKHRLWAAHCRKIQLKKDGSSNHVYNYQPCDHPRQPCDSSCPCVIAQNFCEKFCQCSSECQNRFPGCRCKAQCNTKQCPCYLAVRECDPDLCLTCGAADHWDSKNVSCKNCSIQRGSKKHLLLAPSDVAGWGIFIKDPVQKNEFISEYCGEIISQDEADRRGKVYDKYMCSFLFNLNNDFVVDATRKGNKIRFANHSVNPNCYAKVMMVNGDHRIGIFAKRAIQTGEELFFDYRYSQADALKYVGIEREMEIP
PRC2 containing wt EZH2, sequence (O75530 whole entry partner): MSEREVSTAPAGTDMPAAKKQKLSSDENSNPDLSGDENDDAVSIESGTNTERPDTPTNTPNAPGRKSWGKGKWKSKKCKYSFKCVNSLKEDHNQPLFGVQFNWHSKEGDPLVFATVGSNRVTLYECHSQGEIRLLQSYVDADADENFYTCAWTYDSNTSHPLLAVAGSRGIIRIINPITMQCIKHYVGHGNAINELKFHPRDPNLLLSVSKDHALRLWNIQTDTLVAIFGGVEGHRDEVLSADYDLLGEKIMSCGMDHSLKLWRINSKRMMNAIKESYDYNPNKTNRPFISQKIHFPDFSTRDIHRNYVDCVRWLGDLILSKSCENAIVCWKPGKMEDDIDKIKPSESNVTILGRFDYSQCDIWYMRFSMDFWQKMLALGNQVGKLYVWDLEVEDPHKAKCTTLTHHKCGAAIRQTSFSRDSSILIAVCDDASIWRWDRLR
PRC2 containing wt EZH2, sequence (Q15022 whole entry partner): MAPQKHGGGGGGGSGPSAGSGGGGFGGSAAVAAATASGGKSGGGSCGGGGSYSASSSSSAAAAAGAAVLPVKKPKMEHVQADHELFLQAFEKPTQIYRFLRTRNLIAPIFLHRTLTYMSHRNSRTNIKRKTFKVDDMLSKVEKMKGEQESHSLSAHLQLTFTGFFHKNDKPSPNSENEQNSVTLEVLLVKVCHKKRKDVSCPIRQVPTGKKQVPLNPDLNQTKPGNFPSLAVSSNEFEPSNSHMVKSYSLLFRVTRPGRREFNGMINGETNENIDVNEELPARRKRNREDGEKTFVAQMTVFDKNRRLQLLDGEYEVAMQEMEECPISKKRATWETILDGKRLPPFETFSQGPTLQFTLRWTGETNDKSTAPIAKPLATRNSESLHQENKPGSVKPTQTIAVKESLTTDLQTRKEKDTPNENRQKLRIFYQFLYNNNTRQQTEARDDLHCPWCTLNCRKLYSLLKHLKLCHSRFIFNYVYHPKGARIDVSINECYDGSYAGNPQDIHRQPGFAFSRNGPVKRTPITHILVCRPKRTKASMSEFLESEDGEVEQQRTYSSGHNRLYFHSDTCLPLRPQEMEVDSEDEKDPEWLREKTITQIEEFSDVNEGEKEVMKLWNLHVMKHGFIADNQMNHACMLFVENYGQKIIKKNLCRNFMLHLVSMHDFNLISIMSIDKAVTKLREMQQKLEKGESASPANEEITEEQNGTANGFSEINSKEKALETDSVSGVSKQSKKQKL
PRC2 containing wt EZH2, sequence (Q09028 whole entry partner): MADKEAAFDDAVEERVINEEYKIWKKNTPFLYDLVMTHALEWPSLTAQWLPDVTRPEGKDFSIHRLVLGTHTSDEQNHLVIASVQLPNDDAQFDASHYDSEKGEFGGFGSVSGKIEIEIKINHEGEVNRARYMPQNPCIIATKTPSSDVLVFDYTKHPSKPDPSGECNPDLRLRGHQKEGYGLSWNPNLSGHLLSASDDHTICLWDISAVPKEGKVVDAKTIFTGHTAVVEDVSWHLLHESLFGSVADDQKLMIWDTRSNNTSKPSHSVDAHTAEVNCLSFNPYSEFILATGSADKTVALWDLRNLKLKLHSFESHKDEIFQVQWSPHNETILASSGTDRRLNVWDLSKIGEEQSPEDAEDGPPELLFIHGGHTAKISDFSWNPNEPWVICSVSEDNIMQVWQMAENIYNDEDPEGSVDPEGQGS
PRC2 containing wt EZH2, sequence (Q6ZN18 whole entry partner): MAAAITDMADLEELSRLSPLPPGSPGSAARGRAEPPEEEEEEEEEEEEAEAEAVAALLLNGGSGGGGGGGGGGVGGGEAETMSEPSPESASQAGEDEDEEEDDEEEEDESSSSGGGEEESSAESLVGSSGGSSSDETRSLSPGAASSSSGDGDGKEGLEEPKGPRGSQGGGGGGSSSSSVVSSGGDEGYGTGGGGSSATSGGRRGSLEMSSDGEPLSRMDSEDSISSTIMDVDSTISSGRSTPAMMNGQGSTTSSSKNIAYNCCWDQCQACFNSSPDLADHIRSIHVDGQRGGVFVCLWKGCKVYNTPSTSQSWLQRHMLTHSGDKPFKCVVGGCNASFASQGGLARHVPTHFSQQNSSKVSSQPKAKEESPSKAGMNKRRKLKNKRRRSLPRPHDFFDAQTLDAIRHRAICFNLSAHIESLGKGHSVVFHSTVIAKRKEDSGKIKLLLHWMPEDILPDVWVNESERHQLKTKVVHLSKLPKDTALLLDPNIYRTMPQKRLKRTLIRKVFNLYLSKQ

SMILES | IC50 [1, 3] [nM] | EC50 [2] [nM] | IC50 [1, 4] [nM] | EC50 ([2]; Homo sapiens, HeLa, 72 h) [nM] | IC50 [1, 5] [nM]
COC1(C)CN(C2CCC([C@@H](C)n3c(C)c(C(=O)NCc4c(SC)cc(C)[nH]c4=O)c4ccccc43)CC2)C1 (single isomer, unassigned) [90 (isomer 2)] | < 0.5 | > 100 | – | – | –
CSc1cc(C)[nH]c(=O)c1CNC(=O)c1c(C)n([C@H](C)C2CCC(Oc3cnn(C)c3)CC2)c2ncccc12 (single isomer, unassigned) [147 (isomer 2)] | < 0.5 | < 10 | – | – | –
CSc1cc(C)[nH]c(=O)c1CNC(=O)c1c(C)n([C@H](C)C2CCOCC2)c2ccccc12 [Example 13, (R)-2-methyl-N-((6-methyl-4-(methylthio)-2-oxo-1,2-dihydropyridin-3-yl)methyl)-1-(1-(tetrahydro-2H-pyran-4-yl)ethyl)-1H-indole-3-carboxamide] | – | – | < 0.5 | < 10 | –
CSc1cc(C)[nH]c(=O)c1CNC(=O)c1c(C)n([C@H](C)C2CCC(NC3(C(F)(F)F)COC3)CC2)c2ncncc12 (single isomer, unassigned) [164 (isomer 2)] | 0.5 to 5 | 10 to 100 | – | – | –
CSc1cc(C)[nH]c(=O)c1CNC(=O)c1c(C)n([C@H](C)C2CCC(N3CC(S(C)(=O)=O)C3)CC2)c2ccccc12 (single isomer, unassigned) [162 (isomer 1)] | < 0.5 | 10 to 100 | – | – | –
CSc1cc(C)[nH]c(=O)c1CNC(=O)c1c(C)n([C@H](C)C2CCC(N3CC34COC4)CC2)c2ncccc12 (single isomer, unassigned) [139 (isomer 1)] | – | – | < 0.5 | 10 to 100 | –
CSc1cc(C)[nH]c(=O)c1CNC(=O)c1c(C)n([C@H](C)C2CCC(N3CC(OC(F)F)C3)CC2)c2ccccc12 (single isomer, unassigned) [20 (isomer 1)] | < 0.5 | – | – | < 10 | –
CSc1cc(C)[nH]c(=O)c1CNC(=O)c1c(C)n([C@H](C)C2CCN(CCO)CC2)c2ccccc12 [Example 52, (R)-1-(1-(1-(2-hydroxyethyl)piperidin-4-yl)ethyl)-2-methyl-N-((6-methyl-4-(methylthio)-2-oxo-1,2-dihydropyridin-3-yl)methyl)-1H-indole-3-carboxamide] | – | – | < 0.5 | > 100 | –
COC1CC(N2CC[C@H]([C@@H](C)n3c(C)c(C(=O)NCc4c(SC)cc(C)[nH]c4=O)c4ccccc43)[C@@H](F)C2)C1 (stereo partly drawn) [Example 152, 1-((R)-1-((3R,4R)-3-fluoro-1-(3-methoxycyclobutyl)piperidin-4-yl)ethyl)-2-methyl-N-((6-methyl-4-(methylthio)-2-oxo-1,2-dihydropyridin-3-yl)methyl)-1H-indole-3-carboxamide] | < 0.5 | – | – | < 10 | –
CSc1cc(C)[nH]c(=O)c1CNC(=O)c1c(C)n([C@H](C)C2OCC(N3CC(C)(C)C3)CO2)c2ccccc12 (single isomer, unassigned) [78 (isomer 1)] | – | 10 to 100 | < 0.5 | – | –
CSc1cc(C)[nH]c(=O)c1CNC(=O)c1c(C)n([C@H](C)C2CCC(F)(F)CC2)c2ccccc12 [Example 45, (R)-1-(1-(4,4-difluorocyclohexyl)ethyl)-2-methyl-N-((6-methyl-4-(methylthio)-2-oxo-1,2-dihydropyridin-3-yl)methyl)-1H-indole-3-carboxamide] | – | – | < 0.5 | < 10 | –
CSc1cc(C)[nH]c(=O)c1CNC(=O)c1c(C)n([C@H](C)C2CCN(CC(F)(F)F)CC2)c2cccc(C)c12 [Example 87, (R)-2,4-dimethyl-N-((6-methyl-4-(methylthio)-2-oxo-1,2-dihydropyridin-3-yl)methyl)-1-(1-(1-(2,2,2-trifluoroethyl)piperidin-4-yl)ethyl)-1H-indole-3-carboxamide] | – | – | 0.5 to 5 | < 10 | –
CSc1cc(C)[nH]c(=O)c1CNC(=O)c1c(C)n([C@H](C)C2CCN(C3CC3)CC2)c2ncc(F)cc12 [Example 58, (R)-1-(1-(1-cyclopropylpiperidin-4-yl)ethyl)-5-fluoro-2-methyl-N-((6-methyl-4-(methylthio)-2-oxo-1,2-dihydropyridin-3-yl)methyl)-1H-pyrrolo[2,3-b]pyridine-3-carboxamide] | – | – | < 0.5 | < 10 | –
CSc1cc(C)[nH]c(=O)c1CNC(=O)c1c(C)n([C@H](C)C2CCC(NC3(CO)COC3)CC2)c2cc(F)ccc12 (single isomer, unassigned) [159 (isomer 1)] | < 0.5 | – | – | 10 to 100 | –
CSc1cc(C)[nH]c(=O)c1CNC(=O)c1c(C)n([C@H](C)C2CCC(N3CC(N(C)C)C3)CC2)c2ccccc12 (single isomer, unassigned) [148 (isomer 2)] | < 0.5 | 10 to 100 | – | – | –
CSc1cc(C)[nH]c(=O)c1CNC(=O)c1c(C)n([C@H](C)C2CCNC[C@H]2F)c2ccccc12 (stereo partly drawn) [Example 38, 1-((1R)-1-((3S)-3-fluoropiperidin-4-yl)ethyl)-2-methyl-N-((6-methyl-4-(methylthio)-2-oxo-1,2-dihydropyridin-3-yl)methyl)-1H-indole-3-carboxamide] | – | – | < 0.5 | 10 to 100 | –
CSc1cc(C)[nH]c(=O)c1CNC(=O)c1c(C)n([C@H](C)C2CCC(OC3CC3)CC2)c2ccccc12 (stereo partly drawn) [Example 132, 1-((R)-1-(4-cyclopropoxycyclohexyl)ethyl)-2-methyl-N-((6-methyl-4-(methylthio)-2-oxo-1,2-dihydropyridin-3-yl)methyl)-1H-indole-3-carboxamide] | – | – | < 0.5 | < 10 | –
CSc1cc(C)[nH]c(=O)c1CNC(=O)c1c(C)n([C@H](C)[C@H]2CC[C@H](N3CC(OC(F)F)C3)CC2)c2ncccc12 (single isomer, unassigned) [27 (isomer 1)] | < 0.5 | – | – | < 10 | –
CSc1cc(C)[nH]c(=O)c1CNC(=O)c1c(C)n([C@H](C)C2CCC(N3CC(F)C3)CC2)c2ncc(F)cc12 (single isomer, unassigned) [84 (isomer 2)] | – | 10 to 100 | – | – | < 0.5
CSc1cc(C)[nH]c(=O)c1CNC(=O)c1c(C)n([C@H](C)C2CCC(N3CC(C(F)F)C3)CC2)c2ncccc12 (stereo partly drawn) [Example 96, 1-((R)-1-(4-(3-(difluoromethyl)azetidin-1-yl)cyclohexyl)ethyl)-2-methyl-N-((6-methyl-4-(methylthio)-2-oxo-1,2-dihydropyridin-3-yl)methyl)-1H-pyrrolo[2,3-b]pyridine-3-carboxamide] | < 0.5 | – | – | < 10 | –
CCCC(=O)OC1CCC([C@@H](C)n2c(C)c(C(=O)NCc3c(SC)cc(C)[nH]c3=O)c3ccccc32)CC1 (single isomer, unassigned) [143 (isomer 1)] | < 0.5 | – | – | < 10 | –
CSc1cc(C)[nH]c(=O)c1CNC(=O)c1c(C)n([C@@H](C)c2cnc(C)nc2)c2ccccc12 [Example 34, (S)-2-methyl-N-((6-methyl-4-(methylthio)-2-oxo-1,2-dihydropyridin-3-yl)methyl)-1-(1-(2-methylpyrimidin-5-yl)ethyl)-1H-indole-3-carboxamide] | > 5 | – | – | > 100 | –
CSc1cc(C)[nH]c(=O)c1CNC(=O)c1c(C)n([C@H](C)C2CCN(C)C[C@H]2F)c2ccccc12 (stereo partly drawn) [Example 43, 1-((1R)-1-((3S)-3-fluoro-1-methylpiperidin-4-yl)ethyl)-2-methyl-N-((6-methyl-4-(methylthio)-2-oxo-1,2-dihydropyridin-3-yl)methyl)-1H-indole-3-carboxamide] | – | – | < 0.5 | 10 to 100 | –
CSc1cc(C)[nH]c(=O)c1CNC(=O)c1c(C)n([C@H](C)C2CCC(NC3COC3)CC2)c2ncccc12 (single isomer, unassigned) [62 (isomer 1)] | < 0.5 | 10 to 100 | – | – | –
CSc1cc(C)[nH]c(=O)c1CNC(=O)c1c(C)n([C@H](C)C2CCC(N3CC(OCC(F)F)C3)CC2)c2ncccc12 (stereo partly drawn) [Example 116, 1-((R)-1-(4-(3-(2,2-difluoroethoxy)azetidin-1-yl)cyclohexyl)ethyl)-2-methyl-N-((6-methyl-4-(methylthio)-2-oxo-1,2-dihydropyridin-3-yl)methyl)-1H-pyrrolo[2,3-b]pyridine-3-carboxamide] | < 0.5 | – | – | < 10 | –
CSc1cc(C)[nH]c(=O)c1CNC(=O)c1c(C)n([C@H](C)C2CCC(N3CC(OC(F)F)C3)CC2)c2ncc(F)cc12 (stereo partly drawn) [Example 122, 1-((R)-1-(4-(3-(difluoromethoxy)azetidin-1-yl)cyclohexyl)ethyl)-5-fluoro-2-methyl-N-((6-methyl-4-(methylthio)-2-oxo-1,2-dihydropyridin-3-yl)methyl)-1H-pyrrolo[2,3-b]pyridine-3-carboxamide] | < 0.5 | – | – | < 10 | –
CSc1cc(C)[nH]c(=O)c1CNC(=O)c1c(C)n([C@H](C)C2CCC(O)CC2)c2nc(C)ccc12 (stereo partly drawn) [Example 40, 1-((1R)-1-(4-hydroxycyclohexyl)ethyl)-2,6-dimethyl-N-((6-methyl-4-(methylthio)-2-oxo-1,2-dihydropyridin-3-yl)methyl)-1H-pyrrolo[2,3-b]pyridine-3-carboxamide] | – | – | 0.5 to 5 | > 100 | –
CSc1cc(C)[nH]c(=O)c1CNC(=O)c1c(C)n([C@H](C)C2CCC(N3CCOCC3)CC2)c2ccccc12 (single isomer, unassigned) [75 (isomer 2)] | – | 10 to 100 | – | – | < 0.5
CSc1cc(C)[nH]c(=O)c1CNC(=O)c1c(C)n([C@H](C)C2CCC(O)CC2)c2cc(F)ccc12 (single isomer, unassigned) [44 (isomer 1)] | – | – | < 0.5 | < 10 | –
